One experiment addresses Genome polyprotein (rhinovirus B14, UniProt P03303). Briefly: Inhibition of Human rhinovirus serotype 14 3C protease preincubated for 1 hr followed by Cys(PT14M)-Ala-Ile-Phe-Gln'Gly-Pro-Asp-Phe(4-NH2)-OH substrate addition measured after 1 hr by fluorescence lifetime readout assay.
The next experiment relates to rhinovirus B14. Briefly: Antiviral activity against Human rhinovirus serotype 14 infected in human HeLa cells assessed as reduction in virus-induced cytopathic effect by measuring reduction in host cell viability preincubated with cells for 6 hrs followed by viral infection measured up to 72 hrs by CellTiter-Glo luminescence assay. Format: functional, organism-based. The settings on record: Rhinovirus B.

In ChEMBL document CHEMBL4184282, “Structure-based design and synthesis of macrocyclic human rhinovirus 3C protease inhibitors” (Bioorg Med Chem Lett, 2018) one finds IC50 and EC50 data, which are given here for 14 compounds.

Each structure is given as a SMILES string. Square brackets hold non-standard residues; d marks the D form. Peptide text beside a SMILES is read from it. * marks the point of attachment. ξ: configuration not given here. Cbz = O=C(OCc1ccccc1)*; ξDap = NCC(N)C(=O)O

Sequence of Genome polyprotein (P03303 1538-1719 limits assumed): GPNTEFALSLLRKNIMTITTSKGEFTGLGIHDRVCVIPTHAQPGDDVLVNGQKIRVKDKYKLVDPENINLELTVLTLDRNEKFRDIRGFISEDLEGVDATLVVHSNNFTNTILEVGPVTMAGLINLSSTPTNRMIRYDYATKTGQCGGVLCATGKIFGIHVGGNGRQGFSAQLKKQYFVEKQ

What is called IC50 is the concentration that gives 50% inhibition. As a reminder, the EC50 is the concentration that produces a half-maximal response. For `Cc1cc(C(=O)N[C@H]2CNC(=O)C[C@H]3CCCN3C(=O)CC[C@@H](C=O)NC(=O)[C@H](Cc3ccc(F)cc3)NC2=O)no1`, the IC50 at Genome polyprotein was 2 nM. Besides, in the experiment on rhinovirus B14, the EC50 amounted to 29100 nM.
The like results for `CCOC(=O)/C=C/[C@@H]1CCC(=O)N(C)CCCC[C@H](NC(=O)c2cc(C)on2)C(=O)N[C@@H](Cc2ccc(F)cc2)C(=O)N1` were, in that order, 3840 nM and greater than 50000 nM.
As to `Cc1cc(C(=O)N[C@@H]2C(=O)N[C@@H](Cc3ccc(F)cc3)C(=O)N[C@H](C=O)CCC(=O)N(C)Cc3cccc2c3)no1`, the IC50 on Genome polyprotein was 8 nM. In addition, in the experiment with rhinovirus B14, the EC50 is 568 nM.
The like results for `Cc1cc(C(=O)N[C@H]2C/C=C/CCCO[C@H]3CCN(C3)C(=O)CC[C@@H](C=O)NC(=O)[C@H](Cc3ccc(F)cc3)NC2=O)no1` were, in that order, 2 nM and 2050 nM.
Turning to `Cc1cc(C(=O)N[C@H]2CCCCN(C)C(=O)CC[C@@H](C=O)NC(=O)[C@H](Cc3ccc(F)cc3)NC2=O)no1`, on Genome polyprotein, the concentration for half-maximal inhibition (IC50) amounted to 63 nM. Also, the EC50 in the experiment with rhinovirus B14 came out at 3400 nM.
In turn, `Cc1cc(C(=O)N[C@H]2CNC(=O)CN(C)C(=O)CC[C@@H](C=O)NC(=O)[C@H](Cc3ccc(F)cc3)NC2=O)no1` gave an IC50 on Genome polyprotein of 18 nM. For the same compound, in the experiment with rhinovirus B14, the EC50 was greater than 50000 nM.
The like results for `Cc1cc(C(=O)N[C@H]2CNC(=O)[C@H]3CCCN3C(=O)CC[C@@H](C=O)NC(=O)[C@H](Cc3ccc(F)cc3)NC2=O)no1` were, in that order, 6 nM and 33500 nM.
`Cc1cc(C(=O)N[C@H]2CCCCN(C)C(=O)CC[C@@H](C=O)NC(=O)[C@@H]3C[C@@H](c4ccccc4)CN3C2=O)no1` came in with an IC50 on Genome polyprotein of 7370 nM. Also, the half-maximal effective concentration (EC50) with rhinovirus B14 came to 28600 nM.
Compound `CC(=O)NCC(C=O)NC(=O)[C@H](Cc1ccccc1)NC(=O)[C@H](CC(C)C)NC(=O)OCc1ccccc1` (stereo partly drawn) (Cbz-Leu-Phe-[ξDap](Ac)-aldehyde) yielded a half-maximal inhibitory concentration (IC50) on Genome polyprotein of 7 nM. The EC50 in the experiment with rhinovirus B14 was 1760 nM.
In turn, `Cc1cc(C(=O)N[C@@H]2C(=O)N[C@@H](Cc3ccc(F)cc3)C(=O)N[C@H](C=O)CCC(=O)NCc3cccc2c3)no1` gave an IC50 against Genome polyprotein of 753 nM. In addition, the EC50 in the experiment with rhinovirus B14 is 21900 nM.
Regarding `Cc1cc(C(=O)N[C@H]2C/C=C/CO[C@H]3CCN(C3)C(=O)CC[C@@H](C=O)NC(=O)[C@H](Cc3ccc(F)cc3)NC2=O)no1`, the midpoint of inhibition against Genome polyprotein, the IC50, lay at 3 nM. The EC50 with rhinovirus B14 was determined as 5740 nM.
The like results for `Cc1cc(C(=O)N[C@H]2CCCNC(=O)[C@H]3CCN(C3)C(=O)CC[C@@H](C=O)NC(=O)[C@H](Cc3ccc(F)cc3)NC2=O)no1` were, in that order, 2 nM and greater than 50000 nM.
The like results for `Cc1cc(C(=O)N[C@H]2CCCCNC(=O)CC[C@@H](C=O)NC(=O)[C@H](Cc3ccc(F)cc3)NC2=O)no1` were, in that order, 3200 nM and greater than 50000 nM.
The like results for `Cc1cc(C(=O)N[C@H]2CCCCN(C)C(=O)CC[C@@H](C(=O)C(=O)N3CCC3)NC(=O)[C@H](Cc3ccc(F)cc3)NC2=O)no1` were, in that order, 35 nM and 6100 nM.
